Data as given in US20190142835A1, “INHIBITION OF AUTOPHAGY USING PHOSPHOLIPASE A2 INHIBITORS” (OREGON HEALTH & SCIENCE UNIVERSITY, priority 2017, published 2019).

Columns and labels:
[1] = test system: human RCC cells (ACHN and SN12C); test: Phosphoproteomics screen and kinase substrate enrichment analysis; format: cell-based; settings: phosphoproteome
Procedure: Enriched phospho-peptides were digested with trypsin and analyzed by mass spectroscopy following the published “Cell Signaling Technology” protocol.
MS raw files were analyzed via MaxQuant version 1.5.3.30 [73] and MS/MS fragmentation spectra were searched using Andromeda against human canonical and isoform sequences in Swiss-Prot (downloaded in September 2016 from http://uniprot.org). Quantitative phosphopeptide data were log10 transformed and missing data were imputed before applying quantile normalization as previously described. Hierarchical clustering was performed on the Cluster 3.0 program, using distance that is based on the Pearson correlation and applying pairwise average linkage analysis. Java Treeview was used to visualize clustering results.
Kinase substrate enrichment analysis (KSEA) was performed as previously described. […] Permutation analysis was conducted to calculate statistical significance. The normalized enrichment score was calculated by dividing the enrichment score by the average of the absolute values of all enrichment scores from the permutation analysis.

glycolysis = test: Glucose uptake and lactate excretion as readouts for glycolysis; format: cell-based, human; settings: in vitro
Description: The PI3K-AKT-mTOR pathway regulates multiple steps in glucose uptake and metabolism.

ACHN cells = test: Apoptosis (Caspase 3/7-Glo), ACHN; format: cell-based, human; settings: ACHN, 72 h
Procedure: Apoptosis was determined using Caspase 3/7-Glo assay kit (Promega) following the manufacturer's instructions. Briefly, 2000 cells per well were plated in 96 well plates and cultured for 72 h. […] Caspase 3/7 activity was measured using a luminometer. Luminescence values were normalized by cell numbers.

[2] = test system: PI3K, mTORC1 and mTORC2 signaling; test: Western blotting of PI3K-AKT-mTOR signaling; format: cell-based, human
Procedure: Cells were plated in 6 well dishes and treated the following day with the indicated agents. Treatments were for 24 hours, after which cells were washed with ice cold PBS and lysed with RIPA buffer (Sigma). Phosphatase inhibitor cocktail set II and protease inhibitor cocktail set III (EMD Millipore) were added at the time of lysis. Lysates were centrifuged at 15,000 g×10 min at 4 degrees C. Protein concentrations were calculated based on a BCA assay (Thermo Scientific) generated standard curve. Proteins were resolved using the NuPAGE Novex Mini Gel system on 4% to 12% Bis-Tris Gels (Invitrogen). For western blotting, equal amounts of cell lysates (15-20 μg of protein) were resolved with SDSPAGE, and transferred to membranes. The membrane was probed with primary antibodies, washed, and then incubated with corresponding fluorescent secondary antibodies and washed. The fluorescent signal was captured using LI-COR (Lincoln, Nebr.) Odyssey Imaging System, and fluorescent intensity was quantified using the Odyssey software where indicated. The following antibodies were used for Western blots: p-S6 (S240/244), S6, LC3B, p-Akt(S473), p-Akt(T308), Akt, cleaved caspase3 (Cell Signaling Technologies). p-Stat3 (Y705), Stat3 and β-actin (AC15) (Abcam). Ki67 (Dako) and cleaved caspase3 (Cell Signaling Technologies) were used for immunohistochemistry. […] BX795 and GDC0941 were purchased from Sigma.

MPN patients = settings: human, in vivo; cited from earlier work
ACHN xenografts = test: ACHN xenograft study; format: in vivo
Procedure: 6-week old mice were utilized for human renal cell carcinoma xenografts. For both ACHN and SN12C cell lines 2×10^6 cells were diluted in 50 μl of PBS and 50 μl of Matrigel (BD Biosciences) and were injected subcutaneously into the right and left flank of each mouse. Tumors were monitored until they reached an average size of 50-80 mm3 (approximately 2 weeks), at which point treatments were begun. […] MK2206 (60 mg/kg/day) were administered by oral gavage 2-3 day/week. […] Tumors and mouse weights were measured twice weekly. At least 6-8 mice per treatment group were included. All mice were euthanized using CO2 inhalation followed by cervical dislocation per institutional guidelines at Oregon Health and Science University. Experiments were approved by the Institutional Animal Care and Use Committee at OHSU.
Immunostaining was performed following deparaffinization and rehydration of slides. Antigen retrieval was performed in a pressure cooker using citrate buffer (pH 6.0) for 4 min. Nonspecific binding was blocked using Vector mouse IgG blocking serum 30 min at room temperature. Samples were incubated at room temperature with rabbit monoclonal antibodies pS6 (CST #5364) cleaved caspase 3 (CST#9661), and Ki67 (Dako#M7240).
Slides were developed with Vector Immpress rabbit IgG (#MP7401) and Vector Immpress mouse IgG (#MP7400) for 30 min at room temperature. Chromogenic detection was performed using Vector Immpact DAB (#SK4105) for 3 min. Slides were counterstained with hematoxylin. A 3DHistech MIDI Scanner (Perkin Elmer) was used to capture whole slide digital images with a 20× objective. Images were converted to into MRXS files and computer graphic analysis was completed using inForm 1.4.0 Advanced Image Analysis Software (Perkin Elmer).
Mouse tumor size was analyzed by 2-way ANOVA with time and drug as factors, using GraphPad Prism. Mouse weight during treatment was analyzed by repeated measures 2-way ANOVA, with time and drug as factors. A P value less than 0.05 was considered statistically significant. Immunohistochemistry: P-values were calculated using one-way ANOVA, with Bonferroni's multiple comparison test. * denotes P<0.05, ** denotes P<0.01, and *** denotes P<0.001 throughout this disclosure. Metabolite fold-changes were computed and visualized in Python script, using the openpyxl package (for importing Excel files) and the matplotlib package (for visualizing fold changes).

SMILES: N#CCNC(=O)c1ccc(-c2ccnc(Nc3ccc(N4CCOCC4)cc3)n2)cc1 [CYT387]
- RICTOR phosphorylation [1]: hypophosphorylated at T^1135
- STAT3 Y^705 phosphorylation [1]: trended towards hypophosphorylation of STAT3 Y^705
- TSC2 phosphorylation (T^1462, S^1798) [1]: hypophosphorylated at two inhibitory phosphoresidues
- insulin receptor (INSR) Y^1189 phosphorylation [1]: hyperphosphorylation
- ribosomal protein S6 (RPS6) phosphorylation [1]: trended towards hypophosphorylation
- glucose uptake (glycolysis; 18FDG): significantly decreased glucose uptake
- lactate production (glycolysis; culture media): reduced lactate production
- apoptosis (cleaved-caspase 3/7) (ACHN cells): little or no effect on apoptosis
- phosphorylation of ERK 1/2 [2]: no effect on the phosphorylation of ERK 1/2
- AKT T308 phosphorylation (readout for PI3K signaling) ([2]; time-dependent): increase in AKT T308
- clinical effect in MPN patients (MPN patients): improved splenomegaly and reduced anemia
- apoptosis (cleaved-caspase3) in tumors (ACHN xenografts; ACHN xenograft tumors): minimal impact on apoptosis
- antitumor effect of single agent (ACHN xenografts; ACHN, CYT387 50 mg/kg/day or MK2206 60 mg/kg/day oral gavage): exhibited antitumor effect
- number of adipophilin-positive LDs in tumors (ACHN xenografts; treatment day 40, ACHN xenograft tumors, CYT387<MK2206<CYT387+MK2206, p=0.0046): significantly and incrementally increased
